The target in test [1] is T1, human Elk1 (HsElk1, Kv12.1, KCNH8) (Homo sapiens, UniProt Q96L42).
T1 sequence (Q96L42 1-1107): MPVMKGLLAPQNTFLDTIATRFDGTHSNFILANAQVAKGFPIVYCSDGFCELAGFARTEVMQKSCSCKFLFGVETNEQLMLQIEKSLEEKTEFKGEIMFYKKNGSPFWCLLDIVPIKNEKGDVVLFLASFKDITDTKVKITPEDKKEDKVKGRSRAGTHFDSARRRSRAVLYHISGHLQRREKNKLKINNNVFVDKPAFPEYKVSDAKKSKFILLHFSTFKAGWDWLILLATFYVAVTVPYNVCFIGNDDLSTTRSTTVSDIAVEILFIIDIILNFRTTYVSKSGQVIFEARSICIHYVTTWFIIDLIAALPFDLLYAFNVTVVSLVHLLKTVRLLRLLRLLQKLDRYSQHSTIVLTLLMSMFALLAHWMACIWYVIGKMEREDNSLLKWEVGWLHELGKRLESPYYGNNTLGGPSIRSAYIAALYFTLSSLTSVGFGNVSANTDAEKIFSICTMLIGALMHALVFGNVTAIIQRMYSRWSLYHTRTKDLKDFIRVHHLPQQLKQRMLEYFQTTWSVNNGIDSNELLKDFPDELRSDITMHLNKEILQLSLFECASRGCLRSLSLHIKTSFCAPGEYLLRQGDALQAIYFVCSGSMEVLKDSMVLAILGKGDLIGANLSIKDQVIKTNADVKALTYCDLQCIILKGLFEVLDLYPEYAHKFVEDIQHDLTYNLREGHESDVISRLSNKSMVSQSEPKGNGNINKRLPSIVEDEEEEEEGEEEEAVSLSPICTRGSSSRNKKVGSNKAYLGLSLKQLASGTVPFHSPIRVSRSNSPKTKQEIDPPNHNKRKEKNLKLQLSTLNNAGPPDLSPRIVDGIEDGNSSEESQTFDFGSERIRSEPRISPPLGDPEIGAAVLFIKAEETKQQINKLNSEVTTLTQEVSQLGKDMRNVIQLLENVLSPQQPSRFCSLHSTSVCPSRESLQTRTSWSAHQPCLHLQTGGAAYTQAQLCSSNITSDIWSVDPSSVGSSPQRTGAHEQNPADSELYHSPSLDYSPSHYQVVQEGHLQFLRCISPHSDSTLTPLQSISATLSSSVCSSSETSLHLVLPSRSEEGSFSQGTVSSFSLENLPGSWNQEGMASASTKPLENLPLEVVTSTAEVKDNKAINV
Nature of the test: inside-out patch clamp, Hill fit of activation time constant. It counts as cell-based. (In general: In patch-clamp work, channel activity is measured electrically.)

The target of test [2] is T1, human Elk1 (HsElk1, Kv12.1, KCNH8). Nature of the test: inside-out patch clamp, activation time constant. It counts as biochemical. To be noted: -20 mV, intracellular application, excised patch, pH 7.2.

`CCCCCCCC(=O)OC[C@H](COP(=O)(O)O[C@@H]1[C@H](O)[C@H](O)[C@@H](OP(=O)(O)O)[C@H](OP(=O)(O)O)[C@H]1O)OC(=O)CCCCCCC` [diC8-PIP2]: the EC50 in test [1] turned out to be 12.7 ± 2.2 µM. For the molecule `CCCCCCCC(=O)OC[C@H](COP(=O)(O)O[C@H]1[C@H](O)[C@@H](OP(=O)(O)O)[C@H](OP(=O)(O)O)[C@@H](OP(=O)(O)O)[C@H]1O)OC(=O)CCCCCCC` [diC8-PIP3], in test [2], the “fold change of τact at 10 μM” value is recorded as “PIP3 slowed activation significantly more than PIP2”.

As usually defined, the EC50 is the concentration at which the effect is half-maximal. A higher EC50 goes with lower potency in that assay.
